These results are taken from ChEMBL document CHEMBL1133615 (J Med Chem, 2000).

Molecules are shown by their SMILES.

Assay [1] has as its target T1, Endothelin receptor type B (Homo sapiens, UniProt P24530).
T1 sequence (P24530 whole entry): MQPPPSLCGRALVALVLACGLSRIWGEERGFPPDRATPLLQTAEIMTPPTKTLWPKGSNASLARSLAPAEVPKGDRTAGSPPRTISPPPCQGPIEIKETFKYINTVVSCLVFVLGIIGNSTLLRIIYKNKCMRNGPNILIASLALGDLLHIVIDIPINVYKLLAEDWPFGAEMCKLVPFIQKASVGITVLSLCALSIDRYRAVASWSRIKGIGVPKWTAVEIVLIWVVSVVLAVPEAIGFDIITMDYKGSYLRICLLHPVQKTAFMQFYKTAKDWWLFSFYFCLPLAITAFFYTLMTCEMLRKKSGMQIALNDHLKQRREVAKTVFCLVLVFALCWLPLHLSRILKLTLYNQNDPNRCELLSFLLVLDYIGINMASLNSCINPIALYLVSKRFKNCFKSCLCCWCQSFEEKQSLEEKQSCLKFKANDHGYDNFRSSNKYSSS
The experiment in a line: Inhibition of Human Endothelin B receptor expressed in CHO Cells.

The species named for another assay is Oryctolagus cuniculus. The experiment in a line: Inhibition of Endothelin-1 induced contractions in rabbit carotid artery rings. The format is functional.
The target in the next assay is T2, Endothelin-1 receptor (Homo sapiens, UniProt P25101).
T2 sequence (P25101 whole entry): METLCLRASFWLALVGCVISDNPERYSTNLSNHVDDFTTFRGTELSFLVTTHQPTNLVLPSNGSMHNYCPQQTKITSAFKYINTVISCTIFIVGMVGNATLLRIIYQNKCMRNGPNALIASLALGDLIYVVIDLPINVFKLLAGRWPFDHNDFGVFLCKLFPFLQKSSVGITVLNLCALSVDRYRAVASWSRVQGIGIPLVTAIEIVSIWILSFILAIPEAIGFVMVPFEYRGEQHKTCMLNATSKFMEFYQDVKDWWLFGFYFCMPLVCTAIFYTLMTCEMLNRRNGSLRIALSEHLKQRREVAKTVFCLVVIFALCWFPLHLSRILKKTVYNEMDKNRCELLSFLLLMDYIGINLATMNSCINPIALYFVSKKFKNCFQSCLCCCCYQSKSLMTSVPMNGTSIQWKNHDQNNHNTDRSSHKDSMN

Description for Endothelin-1 receptor: Inhibition of Human Endothelin A receptor expressed in CHO Cells.

For orientation: Ki means a dissociation constant, usually derived from enzyme kinetics or from competition with a known ligand. Higher therefore signals weaker binding. For `Cc1cnc(-c2ccc(-c3ccccc3S(=O)(=O)Nc3onc(C)c3C)cc2)o1`, the figures for the Ki (in assay [1]; on Endothelin-1 receptor) were 12 µM and 11 nM, respectively. Also, the Kb in the assay listed under Oryctolagus cuniculus is 140 nM.
The matching figures for `Cc1noc(NS(=O)(=O)c2ccccc2-c2ccc(-c3cnco3)cc2)c1C`: 78 µM, 3.7 nM and 58 nM.
In the case of `Cc1noc(NS(=O)(=O)c2ccccc2-c2ccc(CC(C)C)cc2N)c1C`, the affinity at Endothelin-1 receptor corresponds to a Ki of 4.7 nM.
Regarding `Cc1nc(-c2ccc(-c3ccccc3S(=O)(=O)Nc3onc(C)c3C)cc2)oc1C`, the Ki turned out to be 12 µM in assay [1] and 16 nM on Endothelin-1 receptor. Moreover, in the assay filed under Oryctolagus cuniculus, the Kb was determined as 230 nM.
With `Cc1noc(NS(=O)(=O)c2ccccc2-c2ccc(CC(C)C)cc2)c1C`, the results for the Ki (in assay [1]; on Endothelin-1 receptor) were 1.7 µM and 18 nM, respectively. In the assay listed under Oryctolagus cuniculus, this compound yielded a Kb of 210 nM.
Consider `Cc1noc(NS(=O)(=O)c2ccccc2-c2ccc(-c3nc4ccccc4o3)cc2)c1C`, for which the Ki was 94 µM in assay [1] and 2000 nM at Endothelin-1 receptor.
As for `Cc1noc(NS(=O)(=O)c2ccccc2-c2ccc(-c3ncoc3C)cc2)c1C`, the figures for the Ki (in assay [1]; at Endothelin-1 receptor) were 94 µM and 4.7 nM, respectively. In the assay listed under Oryctolagus cuniculus, this compound came in with a Kb of 47 nM.
For the compound `Cc1nc(-c2ccc(-c3ccccc3S(=O)(=O)Nc3onc(C)c3C)cc2)co1`, the Ki in assay [1] was 110 µM; on Endothelin-1 receptor, 70 nM. The same compound gave a Kb in the assay listed under Oryctolagus cuniculus of 2500 nM.
For `Cc1noc(NS(=O)(=O)c2ccccc2-c2ccc(-c3cocn3)cc2)c1C` the same measures were 20 µM, 0.5 nM and 20 nM.
The matching figures for `Cc1coc(-c2ccc(-c3ccccc3S(=O)(=O)Nc3onc(C)c3C)cc2)n1`: 100 µM, 2 nM and 18 nM.
For `Cc1noc(NS(=O)(=O)c2ccccc2-c2ccc(Cc3ncco3)cc2)c1C` the same measures were 34 µM, 19 nM and 320 nM.
